# Experimental data published in patent publication US12698523B2, “Enhancement of nucleic acid polymerization by aromatic compounds” (priority 2019, dated 2026).
# Legend:
# [1] = target: T1, C4760 DNA polymerase (a variant of DPO4, SEQ ID NO:2) (Saccharolobus solfataricus, UniProt Q97W02, A155G/A42V/D156R/D292Y/D294N/E291S/E324K/E325K/E327K/E63R/E79L/G187P/G299W/I153V/I189F/I248T/I295S/K152A/K317Q/K321Q/K56Y/K78D/L293W/M76W/N188Y/P184Q/Q82W/Q83G/R300S/S297Y/S86E/T290K/T301W/V289W/V296Q); experiment: Primer extension assay with the HIV2 100mer template; assay type: biochemical, Sulfolobus solfataricus; conditions: for polymerization of XNTPs into full length Xpandomer copies (PEM activity): HIV2 100mer template, Eco SSB, 30 minutes at 23° C.
# T1 construct: made in house
# T1 sequence (Q97W02 other isoform, or with tags, fused parts or gaps with the stated changes): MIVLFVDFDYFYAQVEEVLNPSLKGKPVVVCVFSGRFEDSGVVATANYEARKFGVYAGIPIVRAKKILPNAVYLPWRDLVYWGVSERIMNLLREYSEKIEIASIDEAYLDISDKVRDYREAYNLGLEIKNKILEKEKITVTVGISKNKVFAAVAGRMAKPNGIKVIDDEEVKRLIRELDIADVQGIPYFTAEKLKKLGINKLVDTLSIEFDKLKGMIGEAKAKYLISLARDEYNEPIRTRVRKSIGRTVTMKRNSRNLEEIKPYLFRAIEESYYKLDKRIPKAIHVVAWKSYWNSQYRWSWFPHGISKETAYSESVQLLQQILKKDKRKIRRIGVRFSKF
# Description: PEM activity of compound 12 was tested in primer extension assays using the HIV2 100mer template. Primer extension reactions included the following reagents: 50 Mm TrisCl, 200 Mm NH4Oac, 20% PEG8K, 5% NMS, 0.6 nmol PP-60.20, 0.6 Mm MnCl2, 2.75 μg/μl Eco single-strand binding protein (SSB), 1 M urea, 50 pmol each XNTP, 1.1 pmol template, 1 pmol oligonucleotide primer, 1.2 μg/μl purified recombinant C4760 DNA polymerase (SEQ ID NO:2), and 0.5, 1, or 1.5 Mm PEM. 10 μL primer extension reactions were run for 30 minutes at 23° C. and reaction products were analyzed by gel electrophoresis. […] Lanes 2-4 show primer extension products from reactions with a structurally related additive lacking robust PEM activity.
# PEM activity of compounds 13 and 14 was tested in primer extension assays using the HIV2 100mer template. Primer extension reactions included the following reagents: 50 Mm TrisCl, 200 Mm NH4Oac, 20% PEG8K, 5% NMS, 0.6 nmol PP-60.20, 0.6 Mm MnCl2, 2.75 μg/μl Eco single-strand binding protein (SSB), 1 M urea, 50 pmol each XNTP, 1.1 pmol template, 1 pmol oligonucleotide primer, 1.2 μg/μl purified recombinant C4760 DNA polymerase (a variant of DPO4, see SEQ ID NO:2), and 0.5, 1, 1.52, or 2.5 Mm PEM. 10 μL primer extension reactions were run for 30 minutes at 23° C. and reaction products were analyzed by gel electrophoresis. A representative gel showing primer extension products is presented in FIG. 11 (the position of the full length HIV2 100mer is indicated by the arrow).
# PEM activity of compounds 16, 17, and 18 and combinations thereof were tested in primer extension assays using the HIV2-derived 100mer template. Primer extension reactions included the following reagents: 50 Mm TrisCl, 200 Mm NH4Oac, 20% or 25% PEG8K, 5% NMS, 0.6 nmol PP-60.20, 0.6 Mm MnCl2, 2 μg Kod single-strand binding protein (SSB), 1 M urea, 50 pmol each XNTP, 1 pmol template, 1 pmol oligonucleotide primer, 1.2 μg purified recombinant C4760 DNA polymerase (a variant of DPO4, see SEQ ID NO:2), and 0.5-2 Mm PEM. 10 μL primer extension reactions were run for 30 minutes at 37° C. and reaction products were analyzed by gel electrophoresis. A representative gel showing primer extension products is presented in FIG. 13 (the position of a 100mer product is indicated by the arrow).
# [2] = target: T1, C4760 DNA polymerase (a variant of DPO4, SEQ ID NO:2); experiment: Primer extension on a 45mer RNA template derived from the HIV2 genome sequence; assay type: biochemical, Sulfolobus solfataricus; conditions: 2 Mm PEM; 45mer RNA template from HIV2 genome; 30 minutes at 37° C.
# Description: To begin to investigate the potential of PEMs to enhance diverse polymerase reactions, the ability of PEMS to enable DNA polymerase to utilize RNA as a template was tested. An initial screen of several compounds set forth in Table I was conducted using a 45mer RNA template derived from the HIV2 genome sequence. Primer extension reactions included the following reagents: 50 Mm TrisCl, 200 Mm NH4Oac, 20% PEG8K, 5% NMS, 0.6 nmol PP-60.20, 0.6 Mm MnCl2, 2 μg Kod single-strand binding protein (SSB), 1 M urea, 50 pmol each XNTP, 0.5 pmol template, 0.5 pmol oligonucleotide primer, 1.2 μg purified recombinant C4760 DNA polymerase (a variant of DPO4, see SEQ ID NO:2), and 2 Mm PEM. 10 μL primer extension reactions were run for 30 minutes at 37° C. and reaction products were analyzed by gel electrophoresis.
# [3] = 0.5, 1, 1.52, or 2.5 Mm PEM, FIG. 11
SMILES,PEM activity on an RNA template [2],other results
"N#Cc1cc(-c2cn(-c3ccc(O)c(C(=O)O)c3)nn2)nc(-c2cn(-c3ccc(O)c(C(=O)O)c3)nn2)c1 [Compound 12, 5,5′-((4-cyanopyridine-2,6-diyl)bis(1H-1,2,3-triazole-4,1-diyl))bis(2-hydroxybenzoic acid)]",–,"polymerization of XNTPs into full length Xpandomer copies (PEM activity) ([1]; 0.5, 1, or 1.5 Mm PEM, FIG. 10): enables polymerization of XNTPs into full length Xpandomer copies of the 100mer template"
"Cc1cc(-c2cn(-c3ccc(C(=O)O)c(O)c3)nn2)nc(-c2cn(-c3ccc(C(=O)O)c(O)c3)nn2)c1 [Compound 13, 4,4′-((4-methylpyridine-2,6-diyl)bis(1H-1,2,3-triazole-4,1-diyl))bis(2-hydroxybenzoic acid)]",–,"polymerization of XNTPs into full length Xpandomer copies (PEM activity) [1, 3]: enables polymerization of XNTPs into full length Xpandomer copies of the 100mer template in a manner comparable to that of compound 10"
"CCOC(=O)c1cc(-c2cn(-c3ccc(C(=O)O)c(O)c3)nn2)nc(-c2cn(-c3ccc(C(=O)O)c(O)c3)nn2)c1 [Compound 14, 4,4′-((4-(ethoxycarbonyl)pyridine-2,6-diyl)bis(1H-1,2,3-triazole-4,1-diyl))bis(2-hydroxybenzoic acid)]",–,"polymerization of XNTPs into full length Xpandomer copies (PEM activity) [1, 3]: enables polymerization of XNTPs into full length Xpandomer copies of the 100mer template in a manner comparable to that of compound 10; polymerization of XNTPs into lengthy Xpandomer copies, combination of PEMs ([1]; combination of 2 Mm compound 14 and 0.1 Mm or 0.3 Mm compound 17, HIV2-derived 100mer template, FIG. 13 lanes 7-9): also enabled polymerization of XNTPs into lengthy Xpandomer copies of the 100mer template"
"COC(=O)c1cc(-c2cn(-c3ccc(C(=O)O)c(O)c3)nn2)nc(-c2cn(-c3ccc(C(=O)O)c(O)c3)nn2)c1 [Compound 16, 4,4′-((4-(methoxycarbonyl)pyridine-2,6-diyl)bis(1H-1,2,3-triazole-4,1-diyl))bis(2-hydroxybenzoic acid)]",–,"polymerization of XNTPs into lengthy Xpandomer copies (PEM activity) ([1]; 2 Mm compound 16, 0.5, 1, 2, and 3 Mm compound 17, HIV2-derived 100mer template, Kod SSB, 30 minutes at 37° C., FIG. 13): enable polymerization of XNTPs into lengthy Xpandomer copies of the 100mer template in a manner comparable to that of compound 14; polymerization of XNTPs into full length copies, combination of PEMs ([1]; combination of 2 Mm compound 16 and 0.1 Mm or 0.3 Mm compound 18, HIV2-derived 100mer template, FIG. 13 lanes 10-12): enable polymerization of XNTPS into full length copies of the 100mer template"
"CCN(CC)C(=O)c1cc(-c2cn(-c3ccc(C(=O)O)c(O)c3)nn2)nc(-c2cn(-c3ccc(C(=O)O)c(O)c3)nn2)c1 [Compound 49, 4,4′-((4-(diethylcarbamoyl)pyridine-2,6-diyl)bis(1H-1,2,3-triazole-4,1-diyl))bis(2-hydroxybenzoic acid)]",display PEM activity on an RNA template,–
"O=C(O)c1ccc(-n2cc(-c3cc(C(=O)N4CCOCC4)cc(-c4cn(-c5ccc(C(=O)O)c(O)c5)nn4)n3)nn2)cc1O [Compound 51, 4,4′-((4-(morpholine-4-carbonyl)pyridine-2,6-diyl)bis(1H-1,2,3-triazole-4,1-diyl))bis(2-hydroxybenzoic acid)]",display PEM activity on an RNA template,–
"CCNC(=O)c1cc(-c2cn(-c3ccc(C(=O)O)c(C(F)(F)F)c3)nn2)nc(-c2cn(-c3ccc(C(=O)O)c(C(F)(F)F)c3)nn2)c1 [Compound 73, 4,4′-((4-(ethylcarbamoyl)pyridine-2,6-diyl)bis(1H-1,2,3-triazole-4,1-diyl))bis(2-(trifluoromethyl)benzoic acid)]",display PEM activity on an RNA template,–
"CCNC(=O)c1cc(-c2cn(-c3ccc(C(F)(F)F)c(C(=O)O)c3)nn2)nc(-c2cn(-c3ccc(C(F)(F)F)c(C(=O)O)c3)nn2)c1 [Compound 75, 5,5′-((4-(ethylcarbamoyl)pyridine-2,6-diyl)bis(1H-1,2,3-triazole-4,1-diyl))bis(2-(trifluoromethyl)benzoic acid)]",display PEM activity on an RNA template,–
"CCNC(=O)c1cc(-c2cn(-c3ccc(C(=O)O)c(F)c3)nn2)nc(-c2cn(-c3ccc(C(=O)O)c(F)c3)nn2)c1 [Compound 76, 4,4′-((4-(ethylcarbamoyl)pyridine-2,6-diyl)bis(1H-1,2,3-triazole-4,1-diyl))bis(2-fluorobenzoic acid)]",display PEM activity on an RNA template,–
"CCNC(=O)c1cc(-c2cn(-c3cc(C(=O)O)cc(C(F)(F)F)c3)nn2)nc(-c2cn(-c3cc(C(=O)O)cc(C(F)(F)F)c3)nn2)c1 [Compound 93, 5,5′-((4-(ethylcarbamoyl)pyridine-2,6-diyl)bis(1H-1,2,3-triazole-4,1-diyl))bis(3-(trifluoromethyl)benzoic acid)]",display PEM activity on an RNA template,–
"O=C(NCCO)c1cc(-c2cn(-c3ccc(C(=O)O)c(C(F)(F)F)c3)nn2)nc(-c2cn(-c3ccc(C(=O)O)c(C(F)(F)F)c3)nn2)c1 [Compound 105, 4,4′-((4-((2-hydroxyethyl)carbamoyl)pyridine-2,6-diyl)bis(1H-1,2,3-triazole-4,1-diyl))bis(2-(trifluoromethyl)benzoic acid)]",display PEM activity on an RNA template,–
"CCNC(=O)c1cc(-c2cn(-c3ccc(C(=O)O)c([N+](=O)[O-])c3)nn2)nc(-c2cn(-c3ccc(C(=O)O)c([N+](=O)[O-])c3)nn2)c1 [Compound 106, 4,4′-((4-(ethylcarbamoyl)pyridine-2,6-diyl)bis(1H-1,2,3-triazole-4,1-diyl))bis(2-nitrobenzoic acid)]",display PEM activity on an RNA template,–
"CCNC(=O)c1cc(-c2cn(-c3ccc(C(=O)NCC(=O)O)c(C(F)(F)F)c3)nn2)nc(-c2cn(-c3ccc(C(=O)NCC(=O)O)c(C(F)(F)F)c3)nn2)c1 [Compound 110, 2,2′-((4,4′-((4-(ethylcarbamoyl)pyridine-2,6-diyl)bis(1H-1,2,3-triazole-4,1-diyl))bis(2-(trifluoromethyl)benzoyl))bis(azanediyl))diacetic acid]",display PEM activity on an RNA template,–
"CCNC(=O)c1cc(-n2cc(-c3ccc(C(=O)O)c(C(F)(F)F)c3)nn2)cc(-n2cc(-c3ccc(C(=O)O)c(C(F)(F)F)c3)nn2)c1 [Compound 116, 4,4′-((5-(ethylcarbamoyl)-1,3-phenylene)bis(1H-1,2,3-triazole-1,4-diyl))bis(2-(trifluoromethyl)benzoic acid)]",display PEM activity on an RNA template,–
"O=C(O)c1ccc(-n2cc(-c3ccc(-c4cn(-c5ccc(C(=O)O)c(C(F)(F)F)c5)nn4)o3)nn2)cc1C(F)(F)F [Compound 118, 4,4′-(furan-2,5-diylbis(1H-1,2,3-triazole-4,1-diyl))bis(2-(trifluoromethyl)benzoic acid)]",display PEM activity on an RNA template,–
